Experimental data reported in PMC12090182, “Repurposing of the RIPK1-Selective Benzo[1,4]oxazepin-4-one Scaffold for the Development of a Type III LIMK1/2 Inhibitor” (ACS Chemical Biology, 2025).
Like-named read-outs stand apart in the source and are kept apart here.

Test system: U2OS cells
Format: cell-based
Protocol: To assess the influence on cell health, a high-content screening in living cells called the multiplex high-content assay, as described previously by Tjaden et al., was performed.[38] In brief, HEK293T (ATCC CRL-1573) and U2OS (ATCCHTB-96) were cultured in DMEM plus L-glutamine (high glucose) supplemented by 10% FBS (Gibco) and penicillin/streptomycin (Gibco). MRC-9 fibroblasts ([…]) were cultured in EMEM plus L-glutamine supplemented by 10% FBS (Gibco) and penicillin/streptomycin (Gibco). Cells were seeded at a density of 1250 cells per well in a 384-well plate in a culture medium (cell culture microplate, PS, f-bottom, μClear, 781091, Greiner), with a volume of 50 μL per well. All outer wells were filled with 100 μL of PBS buffer (Gibco). […] The cell shape and fluorescence were measured before treatment and 12, 24, and 48 h after compound treatment using the CQ1 high-content confocal microscope (Yokogawa, Musashino, Japan). […] The compounds were tested at 1 and 10 μM, respectively. Acquired images of the cells were processed using Yokogawa CellPathfinder software (v3.04.02.02). […] Results were normalized to cells exposed to 0.1% DMSO. All compounds were tested in biological duplicates, and SEM (standard error of mean) was calculated of biological duplicates.

[1] = 1 µM, 0 h, U2OS, biological replicate 1
[2] = 1 µM, 0 h, U2OS, biological replicate 2
[3] = 1 µM, 12 h, U2OS, biological replicate 1
[4] = 1 µM, 12 h, U2OS, biological replicate 2
[5] = 1 µM, 24 h, U2OS, biological replicate 1
[6] = 1 µM, 24 h, U2OS, biological replicate 2
[7] = 1 µM, 48 h, U2OS, biological replicate 1
[8] = 1 µM, 48 h, U2OS, biological replicate 2
[9] = 10 µM, 0 h, U2OS, biological replicate 1
[10] = 10 µM, 0 h, U2OS, biological replicate 2
[11] = 10 µM, 12 h, U2OS, biological replicate 1
[12] = 10 µM, 12 h, U2OS, biological replicate 2
[13] = 10 µM, 24 h, U2OS, biological replicate 1
[14] = 10 µM, 24 h, U2OS, biological replicate 2
[15] = 10 µM, 48 h, U2OS, biological replicate 1
[16] = 10 µM, 48 h, U2OS, biological replicate 2

CC(C)C(=O)Nc1ncc(-c2cc(C(F)F)nn2-c2c(Cl)cccc2Cl)s1 [LIMKi3]
Cell count normalized to cells treated with DMSO control [1]: 1.067
Cell count per well [1]: 222
Population Fragmented Nuclei (%) [1]: 50.47%
Population Healthy Nuclei (%) [1]: 44.34%
Population Pyknosed Nuclei (%) [1]: 5.19%
Population apoptotic cell (%) [1]: 81.82%
Population cell that influence microtubule strucutre (%) [1]: 3.19%
Population with increased mitochondrial mass (%) [1]: 4.26%
Population with membrane disruption (%) [1]: 8.51%
Cell count normalized to cells treated with DMSO control [2]: 1.097
Cell count per well [2]: 94
Population Fragmented Nuclei (%) [2]: 27.47%
Population Healthy Nuclei (%) [2]: 63.74%
Population Pyknosed Nuclei (%) [2]: 8.79%
Population apoptotic cell (%) [2]: 100.00%
Population cell that influence microtubule strucutre (%) [2]: 5.17%
Population with increased mitochondrial mass (%) [2]: 1.72%
Population with membrane disruption (%) [2]: 5.17%
Cell count normalized to cells treated with DMSO control [3]: 0.9868
Cell count per well [3]: 261
Population Fragmented Nuclei (%) [3]: 35.71%
Population Healthy Nuclei (%) [3]: 57.94%
Population Pyknosed Nuclei (%) [3]: 6.35%
Population apoptotic cell (%) [3]: 81.25%
Population cell that influence microtubule strucutre (%) [3]: 3.42%
Population with increased mitochondrial mass (%) [3]: 2.05%
Population with membrane disruption (%) [3]: 6.85%
Cell count normalized to cells treated with DMSO control [4]: 1.091
Cell count per well [4]: 129
Population Fragmented Nuclei (%) [4]: 18.25%
Population Healthy Nuclei (%) [4]: 76.98%
Population Pyknosed Nuclei (%) [4]: 4.76%
Population apoptotic cell (%) [4]: 100.00%
Population cell that influence microtubule strucutre (%) [4]: 4.12%
Population with increased mitochondrial mass (%) [4]: 4.12%
Population with membrane disruption (%) [4]: 5.15%
Cell count normalized to cells treated with DMSO control [5]: 0.9303
Cell count per well [5]: 290
Population Fragmented Nuclei (%) [5]: 30.77%
Population Healthy Nuclei (%) [5]: 62.24%
Population Pyknosed Nuclei (%) [5]: 6.99%
Population apoptotic cell (%) [5]: 80.00%
Population cell that influence microtubule strucutre (%) [5]: 2.25%
Population with increased mitochondrial mass (%) [5]: 3.37%
Population with membrane disruption (%) [5]: 5.06%
Cell count normalized to cells treated with DMSO control [6]: 1.125
Cell count per well [6]: 160
Population Fragmented Nuclei (%) [6]: 21.52%
Population Healthy Nuclei (%) [6]: 67.72%
Population Pyknosed Nuclei (%) [6]: 10.76%
Population apoptotic cell (%) [6]: 70.59%
Population cell that influence microtubule strucutre (%) [6]: 1.87%
Population with increased mitochondrial mass (%) [6]: 2.80%
Population with membrane disruption (%) [6]: 4.67%
Cell count normalized to cells treated with DMSO control [7]: 0.8403
Cell count per well [7]: 374
Population Fragmented Nuclei (%) [7]: 26.78%
Population Healthy Nuclei (%) [7]: 61.48%
Population Pyknosed Nuclei (%) [7]: 11.75%
Population apoptotic cell (%) [7]: 86.05%
Population cell that influence microtubule strucutre (%) [7]: 4.44%
Population with increased mitochondrial mass (%) [7]: 2.67%
Population with membrane disruption (%) [7]: 6.22%
Cell count normalized to cells treated with DMSO control [8]: 0.9779
Cell count per well [8]: 202
Population Fragmented Nuclei (%) [8]: 17.50%
Population Healthy Nuclei (%) [8]: 70.50%
Population Pyknosed Nuclei (%) [8]: 12.00%
Population apoptotic cell (%) [8]: 87.50%
Population cell that influence microtubule strucutre (%) [8]: 4.26%
Population with increased mitochondrial mass (%) [8]: 2.13%
Population with membrane disruption (%) [8]: 6.38%
Cell count normalized to cells treated with DMSO control [9]: 1.081
Cell count per well [9]: 225
Population Fragmented Nuclei (%) [9]: 43.12%
Population Healthy Nuclei (%) [9]: 50.46%
Population Pyknosed Nuclei (%) [9]: 6.42%
Population apoptotic cell (%) [9]: 78.57%
Population cell that influence microtubule strucutre (%) [9]: 4.55%
Population with increased mitochondrial mass (%) [9]: 3.64%
Population with membrane disruption (%) [9]: 7.27%
Cell count normalized to cells treated with DMSO control [10]: 1.132
Cell count per well [10]: 97
Population Fragmented Nuclei (%) [10]: 17.53%
Population Healthy Nuclei (%) [10]: 71.13%
Population Pyknosed Nuclei (%) [10]: 11.34%
Population apoptotic cell (%) [10]: 90.91%
Population cell that influence microtubule strucutre (%) [10]: 5.80%
Population with increased mitochondrial mass (%) [10]: 10.14%
Population with membrane disruption (%) [10]: 5.80%
Cell count normalized to cells treated with DMSO control [11]: 0.8507
Cell count per well [11]: 225
Population Fragmented Nuclei (%) [11]: 35.24%
Population Healthy Nuclei (%) [11]: 45.24%
Population Pyknosed Nuclei (%) [11]: 19.52%
Population apoptotic cell (%) [11]: 63.41%
Population cell that influence microtubule strucutre (%) [11]: 84.21%
Population with increased mitochondrial mass (%) [11]: 51.58%
Population with membrane disruption (%) [11]: 77.89%
Cell count normalized to cells treated with DMSO control [12]: 0.9469
Cell count per well [12]: 112
Population Fragmented Nuclei (%) [12]: 12.15%
Population Healthy Nuclei (%) [12]: 68.22%
Population Pyknosed Nuclei (%) [12]: 19.63%
Population apoptotic cell (%) [12]: 57.14%
Population cell that influence microtubule strucutre (%) [12]: 86.30%
Population with increased mitochondrial mass (%) [12]: 68.49%
Population with membrane disruption (%) [12]: 67.12%
Cell count normalized to cells treated with DMSO control [13]: 0.7058
Cell count per well [13]: 220
Population Fragmented Nuclei (%) [13]: 35.92%
Population Healthy Nuclei (%) [13]: 37.86%
Population Pyknosed Nuclei (%) [13]: 26.21%
Population apoptotic cell (%) [13]: 55.56%
Population cell that influence microtubule strucutre (%) [13]: 78.21%
Population with increased mitochondrial mass (%) [13]: 65.38%
Population with membrane disruption (%) [13]: 65.38%
Cell count normalized to cells treated with DMSO control [14]: 0.7383
Cell count per well [14]: 105
Population Fragmented Nuclei (%) [14]: 11.11%
Population Healthy Nuclei (%) [14]: 58.59%
Population Pyknosed Nuclei (%) [14]: 30.30%
Population apoptotic cell (%) [14]: 60.00%
Population cell that influence microtubule strucutre (%) [14]: 75.86%
Population with increased mitochondrial mass (%) [14]: 65.52%
Population with membrane disruption (%) [14]: 53.45%
Cell count normalized to cells treated with DMSO control [15]: 0.528
Cell count per well [15]: 235
Population Fragmented Nuclei (%) [15]: 37.96%
Population Healthy Nuclei (%) [15]: 28.70%
Population Pyknosed Nuclei (%) [15]: 33.33%
Population apoptotic cell (%) [15]: 68.06%
Population cell that influence microtubule strucutre (%) [15]: 77.42%
Population with increased mitochondrial mass (%) [15]: 54.84%
Population with membrane disruption (%) [15]: 80.65%
Cell count normalized to cells treated with DMSO control [16]: 0.6342
Cell count per well [16]: 131
Population Fragmented Nuclei (%) [16]: 20.83%
Population Healthy Nuclei (%) [16]: 49.17%
Population Pyknosed Nuclei (%) [16]: 30.00%
Population apoptotic cell (%) [16]: 77.78%
Population cell that influence microtubule strucutre (%) [16]: 77.97%
Population with increased mitochondrial mass (%) [16]: 54.24%
Population with membrane disruption (%) [16]: 67.80%

CN1C(=O)[C@@H](N2CCc3c(C(N)=O)nn(Cc4ccccc4)c3C2=O)COc2ccccc21 [Compound 11]
Population apoptotic cell (%) (human, 0 h, 1 µM): 66.67%
